This assay relates to hES cells. Briefly: Expression of pluripotency and differentiation markers (RT-PCR, FACS, immunofluorescence). It counts as cell-based, human. Conditions: compared with cells on Matrigel passed as small clumps. How it is done: For immunofluorescence studies, ES cells were cultured and fixed in 8-well slide chambers (BD Biosciences) or 96-well plate wells by 4% paraformaldehyde, permeabilized by 0.1% Triton-X and blocked by 10% bovine fetal serum (GIBCO Invitrogen Corporation) in phosphate-saline buffer (PBS) containing 0.1% Tween-20 (Sigma-Aldrich, St. Louis, http://www.sigmaaldrich.com) for one hour. Incubation with primary antibody was performed for 1.5 hours at room temperature. Incubation with secondary antibody and 4,6-diamidino-2-phenylindole (DAPI, Molecular Probes) was performed for 40 minutes. Between incubations, the specimens were washed with 0.1% Tween-20 in PBS buffer three to five times. Specimens were preserved in a fluorescence mounting medium (Dako, Glostrup, Denmark, http://www.dako.com), and observed under a fluorescence microscope (Leica, Heerbrugg, Switzerland, http://www.leica.com).
Total RNA was isolated using Absolutely RNA Microprep Kit (Stratagene, La Jolla Calif., www.stratagene.com) according to the manufacturer's instructions. cDNA was synthesized using 0.2 μg of total RNA in 20 μl reaction mixture, containing oligo(dT)12-18 primers and Superscript II reverse transcriptase (GIBCO Invitrogen Corporation), according to the manufacturer's instructions. […] All data was analyzed with 7300 System SDS Software v 1.4. […]

As to “LN-521: protein formed by joining α5, β2 and γ1 laminin chains; human recombinant, produced in HEK293 cells”, the “expression levels of pluripotency markers Oct4, Nanog and SSEA4” value is reported as “stable expression levels”.
